Laboratory results reported in patent US10800791B2, “Triazole ACC inhibitors and uses thereof” (Gilead Apollo, LLC, priority 2015, dated 2020).
Values after ≈ are worked out from the molar mass of the structure shown. Where two headings read alike, the source gives them in different places.

How the values were obtained:
human (hACC2) = human (hACC2) (Homo sapiens, UniProt O00763); test: In vitro ACC inhibition assay (ADP-Glo), hACC2; assay type: biochemical; conditions: 5 nM ACC2, 20 μM ATP, 20 μM acetyl-CoA
Chain of human (hACC2) (O00763 whole entry): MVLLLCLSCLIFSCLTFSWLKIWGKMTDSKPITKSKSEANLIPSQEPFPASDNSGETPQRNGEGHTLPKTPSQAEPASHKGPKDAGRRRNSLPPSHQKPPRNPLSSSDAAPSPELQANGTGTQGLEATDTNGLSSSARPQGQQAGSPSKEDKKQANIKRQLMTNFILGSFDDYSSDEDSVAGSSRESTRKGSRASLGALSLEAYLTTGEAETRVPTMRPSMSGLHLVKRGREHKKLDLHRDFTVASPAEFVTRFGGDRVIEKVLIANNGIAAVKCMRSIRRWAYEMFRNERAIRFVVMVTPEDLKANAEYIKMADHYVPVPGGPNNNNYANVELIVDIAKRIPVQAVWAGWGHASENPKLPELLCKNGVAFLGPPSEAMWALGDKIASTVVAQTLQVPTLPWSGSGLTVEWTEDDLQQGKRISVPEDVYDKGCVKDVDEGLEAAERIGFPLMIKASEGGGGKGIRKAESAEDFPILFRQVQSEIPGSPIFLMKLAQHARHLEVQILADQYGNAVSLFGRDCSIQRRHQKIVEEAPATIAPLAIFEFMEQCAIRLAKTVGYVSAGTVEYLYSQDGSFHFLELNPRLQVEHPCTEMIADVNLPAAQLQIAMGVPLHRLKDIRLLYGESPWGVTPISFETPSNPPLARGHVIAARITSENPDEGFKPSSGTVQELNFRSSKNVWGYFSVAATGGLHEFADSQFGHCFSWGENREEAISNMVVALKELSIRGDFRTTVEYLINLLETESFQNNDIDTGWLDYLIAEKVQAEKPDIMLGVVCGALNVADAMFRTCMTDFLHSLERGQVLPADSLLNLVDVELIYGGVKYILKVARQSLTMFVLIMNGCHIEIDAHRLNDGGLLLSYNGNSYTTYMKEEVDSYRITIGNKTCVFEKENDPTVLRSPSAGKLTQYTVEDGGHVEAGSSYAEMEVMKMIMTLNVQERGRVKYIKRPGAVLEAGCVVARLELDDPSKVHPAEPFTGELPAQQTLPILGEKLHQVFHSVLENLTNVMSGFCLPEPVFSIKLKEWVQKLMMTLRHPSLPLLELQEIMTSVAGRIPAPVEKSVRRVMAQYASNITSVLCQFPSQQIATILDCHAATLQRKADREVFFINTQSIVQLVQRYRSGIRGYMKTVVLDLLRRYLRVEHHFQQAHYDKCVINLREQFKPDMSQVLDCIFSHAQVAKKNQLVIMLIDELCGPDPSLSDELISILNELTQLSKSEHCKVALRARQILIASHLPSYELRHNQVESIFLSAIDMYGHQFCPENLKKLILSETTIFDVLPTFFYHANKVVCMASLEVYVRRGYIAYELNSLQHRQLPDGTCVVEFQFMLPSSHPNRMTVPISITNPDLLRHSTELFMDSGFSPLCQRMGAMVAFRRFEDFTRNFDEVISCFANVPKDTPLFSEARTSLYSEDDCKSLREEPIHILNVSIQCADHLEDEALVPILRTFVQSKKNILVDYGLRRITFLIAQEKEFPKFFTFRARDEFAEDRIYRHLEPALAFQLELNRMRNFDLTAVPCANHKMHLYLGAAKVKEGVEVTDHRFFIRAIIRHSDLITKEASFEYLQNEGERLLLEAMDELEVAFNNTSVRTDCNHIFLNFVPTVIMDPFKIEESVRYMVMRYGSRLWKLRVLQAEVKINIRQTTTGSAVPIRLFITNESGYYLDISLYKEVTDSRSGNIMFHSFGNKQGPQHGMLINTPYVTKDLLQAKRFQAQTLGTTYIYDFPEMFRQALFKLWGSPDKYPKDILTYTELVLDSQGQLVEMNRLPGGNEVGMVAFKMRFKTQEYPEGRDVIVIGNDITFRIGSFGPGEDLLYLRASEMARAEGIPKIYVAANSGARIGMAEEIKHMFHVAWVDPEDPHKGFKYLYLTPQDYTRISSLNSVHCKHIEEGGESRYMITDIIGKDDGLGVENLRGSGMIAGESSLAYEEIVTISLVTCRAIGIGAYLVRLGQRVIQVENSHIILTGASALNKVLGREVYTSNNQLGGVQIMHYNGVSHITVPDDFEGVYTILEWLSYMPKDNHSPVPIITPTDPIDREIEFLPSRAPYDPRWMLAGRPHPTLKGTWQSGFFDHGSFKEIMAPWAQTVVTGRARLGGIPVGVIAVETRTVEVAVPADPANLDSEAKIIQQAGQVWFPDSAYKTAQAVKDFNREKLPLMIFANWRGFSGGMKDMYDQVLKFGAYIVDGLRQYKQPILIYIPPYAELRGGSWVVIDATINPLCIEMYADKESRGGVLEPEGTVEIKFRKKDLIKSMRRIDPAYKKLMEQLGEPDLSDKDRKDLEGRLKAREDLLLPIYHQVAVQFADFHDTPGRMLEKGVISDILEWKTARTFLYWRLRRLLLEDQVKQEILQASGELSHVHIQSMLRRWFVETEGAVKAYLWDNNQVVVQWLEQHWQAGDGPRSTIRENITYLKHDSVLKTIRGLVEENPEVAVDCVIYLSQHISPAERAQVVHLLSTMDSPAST
Protocol: The detailed procedure is as follows. […] 10 μL ADP glo reagent was added. […] 20 μL kinase detection reagent was added.

[1] = tested on: Phytophthora capsici (Pc); test: Growth inhibition assay of fungal pathogens, Pc; assay type: cell-based; conditions: 48 h
Protocol: (§1) Compounds of the present invention were evaluated in a growth inhibition assay to determine the ability to control the growth of fungal pathogens, such as Botrtyis cinerea (Bc), Collectotrichum graminicola (Cg), Diplodia maydis (Dm), Fusarium moniliforme (Fm), Fusarium virguliforme (Fv), Phytophthora capsici (Pc), Rhizoctonia solani (Rs), and Septoria tritici (St).
(§2) Compounds to be tested were dissolved in DMSO at 2.5 mg/ml to produce compound stock solutions (“stocks”). Stocks were diluted with DMSO by a five-fold dilution in a 96-well stock plate, and two sets of final concentrations of 50, 10, and 2 ppm or 2, 0.4, and 0.08 ppm were obtained in vitro. A set of positive controls was also prepared, with various concentrations of Soraphen (2, 0.4, and 0.08 ppm), Metalaxyl (1.1, 0.22, and 0.04 ppm), and Metconazole (2, 0.4, and 0.08 ppm or 0.2, 0.04, and 0.008 ppm) after the five-fold dilutions. Negative controls on each plate included 2% DMSO, water, and a blank (media+2% DMSO).
(§3) Fungal spores were isolated from previously sub-cultured plates of Botrtyis cinerea (Bc), Collectotrichum graminicola (Cg), Diplodia maydis (Dm), Fusarium moniliforme (Fm), Fusarium virguliforme (Fv), Phytophthora capsici (Pc), and Septoria tritici (St). The isolated spores were diluted to individual concentrations with a 17% V8 liquid media. For Rhizoctonia solani (Rs) and Pythium irregulare, 1.5 mm mycelial plugs were used in place of spores and/4 Potato Dextrose Broth (PDB) was used for dilution. The spore concentrations and plug sizes were based on growth curves generated at 48 hours for each pathogen.
(§4) In a second 96-well plate, the spores or mycelial plugs, media, diluted compound solutions, and controls were combined. Once the compound was added, a true final concentration of compound in each well was measured by an OD600 reading, which adjusted for any compound precipitation that might have occurred in the well. Plate readings were repeated at both 24 and 48 hours. The blank negative control was used as a background subtraction. Additional visual ratings were performed at both 24 and 48 hours for checking on precipitation and confirming efficacy. Visual and OD600 ratings of the compounds at 48 hours were compared to the 2% DMSO negative control, and the percent of pathogen growth inhibition was determined based on those values.

Botrtyis cinerea (Bc) = test: Growth inhibition assay of fungal pathogens, Bc; assay type: cell-based; conditions: 48 h, growth inhibition at 48 hours vs 2% DMSO control
Protocol: as §1, §2, §3, §4

C. albicans = test: Antifungal Activity Assay (broth microtiter MIC), C. albicans; assay type: cell-based, Candida albicans; conditions: Candida albicans, ATCC90028, 48 h
Method in brief: (§5)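 Endpoint: lowest concentration visibly inhibiting growth relative to control after 48 h. Inoculum of 2.5×10^3 CFU/mL final in RPMI 1640+MOPS, prepared from overnight 35° C agar cultures; test compounds diluted in water to 128 μg/mL before plating.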

C. krusei = test: Antifungal Activity Assay (broth microtiter MIC), C. krusei; assay type: cell-based, Candida krusei; conditions: Pichia kudriavzevii, ATCC6258, 48 h
Method in brief: as §5

[2] = tested on: Fusarium moniliforme (Fm); test: Growth inhibition assay of fungal pathogens, Fm; assay type: cell-based; conditions: Fusarium verticillioides, 48 h, read-out: Concentration at 90% Inhibition Fm
Protocol: as §1, §2, §3, §4

Diplodia maydis (Dm) = test: Growth inhibition assay of fungal pathogens, Dm; assay type: cell-based; conditions: Stenocarpella maydis, 48 h, growth inhibition at 48 hours vs 2% DMSO control
Protocol: as §1, §2, §3, §4

[3] = tested on: Collectotrichum graminicola (Cg); test: Growth inhibition assay of fungal pathogens, Cg; assay type: cell-based; conditions: 48 h, growth inhibition at 48 hours vs 2% DMSO control
Protocol: as §1, §2, §3, §4

fungal (fACC2) = fungal (fACC2) (UniProt Q00955); conditions: read-out: fACC2 (in vitro ACC2 Inhibition Assay, IC50), ADP-Glo, 5 nM ACC2, 20 μM ATP, 20 μM acetyl-CoA
Chain of fungal (fACC2) (Q00955 whole entry): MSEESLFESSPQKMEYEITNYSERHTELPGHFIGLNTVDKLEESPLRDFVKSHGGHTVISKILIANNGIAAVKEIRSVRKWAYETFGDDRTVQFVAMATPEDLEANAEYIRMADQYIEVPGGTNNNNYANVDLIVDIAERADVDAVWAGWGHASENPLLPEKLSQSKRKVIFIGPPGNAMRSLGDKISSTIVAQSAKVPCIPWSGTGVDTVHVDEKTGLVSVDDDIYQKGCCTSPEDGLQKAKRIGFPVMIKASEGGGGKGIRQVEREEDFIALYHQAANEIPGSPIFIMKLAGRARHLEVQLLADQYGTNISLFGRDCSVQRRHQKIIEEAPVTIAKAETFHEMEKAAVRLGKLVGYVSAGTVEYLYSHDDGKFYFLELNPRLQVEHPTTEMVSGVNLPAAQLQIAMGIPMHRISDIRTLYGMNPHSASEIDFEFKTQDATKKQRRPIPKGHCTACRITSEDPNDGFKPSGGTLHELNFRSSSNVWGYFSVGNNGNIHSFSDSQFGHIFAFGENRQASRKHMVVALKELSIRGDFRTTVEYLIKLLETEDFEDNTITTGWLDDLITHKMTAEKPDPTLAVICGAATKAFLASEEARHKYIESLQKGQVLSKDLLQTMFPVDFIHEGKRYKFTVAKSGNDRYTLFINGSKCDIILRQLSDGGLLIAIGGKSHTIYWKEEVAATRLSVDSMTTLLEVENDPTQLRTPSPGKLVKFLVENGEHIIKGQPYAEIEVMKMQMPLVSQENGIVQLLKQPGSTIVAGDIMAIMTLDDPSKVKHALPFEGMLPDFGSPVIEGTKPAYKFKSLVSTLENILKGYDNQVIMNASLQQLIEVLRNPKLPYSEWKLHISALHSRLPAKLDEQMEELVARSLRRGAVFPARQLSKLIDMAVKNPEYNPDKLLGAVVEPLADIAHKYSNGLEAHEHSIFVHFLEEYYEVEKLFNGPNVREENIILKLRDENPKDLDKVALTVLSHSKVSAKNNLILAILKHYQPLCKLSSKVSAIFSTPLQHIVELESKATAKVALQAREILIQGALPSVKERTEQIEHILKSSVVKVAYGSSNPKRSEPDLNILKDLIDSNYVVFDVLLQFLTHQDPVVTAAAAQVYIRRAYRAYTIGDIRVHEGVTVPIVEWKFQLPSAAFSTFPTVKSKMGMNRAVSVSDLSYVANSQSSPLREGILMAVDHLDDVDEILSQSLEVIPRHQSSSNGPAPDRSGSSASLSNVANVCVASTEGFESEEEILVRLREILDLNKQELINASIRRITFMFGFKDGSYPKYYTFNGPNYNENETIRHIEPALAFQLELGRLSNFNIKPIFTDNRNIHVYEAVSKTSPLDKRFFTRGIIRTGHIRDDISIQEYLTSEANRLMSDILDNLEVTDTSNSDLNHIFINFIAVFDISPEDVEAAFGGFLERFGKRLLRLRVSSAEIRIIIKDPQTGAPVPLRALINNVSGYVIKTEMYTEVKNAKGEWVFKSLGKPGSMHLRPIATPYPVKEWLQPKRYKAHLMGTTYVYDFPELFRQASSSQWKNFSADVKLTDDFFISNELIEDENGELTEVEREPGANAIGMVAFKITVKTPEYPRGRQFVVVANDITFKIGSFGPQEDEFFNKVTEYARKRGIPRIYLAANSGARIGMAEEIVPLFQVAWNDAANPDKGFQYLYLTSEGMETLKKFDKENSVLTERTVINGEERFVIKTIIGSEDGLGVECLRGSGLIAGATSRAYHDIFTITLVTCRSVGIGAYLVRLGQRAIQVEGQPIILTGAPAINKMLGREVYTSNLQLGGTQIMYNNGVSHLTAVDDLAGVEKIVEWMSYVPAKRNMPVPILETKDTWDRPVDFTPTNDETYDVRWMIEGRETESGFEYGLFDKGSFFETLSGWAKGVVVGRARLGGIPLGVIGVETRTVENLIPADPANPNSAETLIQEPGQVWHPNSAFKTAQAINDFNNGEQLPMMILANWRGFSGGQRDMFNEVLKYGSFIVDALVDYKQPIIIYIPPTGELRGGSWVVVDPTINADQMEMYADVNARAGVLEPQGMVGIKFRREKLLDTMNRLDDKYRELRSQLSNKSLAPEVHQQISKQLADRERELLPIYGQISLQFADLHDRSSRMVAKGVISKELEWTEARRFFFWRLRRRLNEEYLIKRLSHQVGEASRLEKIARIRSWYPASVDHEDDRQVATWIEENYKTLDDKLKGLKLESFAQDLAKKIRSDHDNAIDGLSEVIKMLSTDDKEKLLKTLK

Rhizoctonia solani (Rs) = test: Growth inhibition assay of fungal pathogens, Rs; assay type: cell-based; conditions: 48 h
[4] = tested on: Fusarium virguliforme (Fv); test: Growth inhibition assay of fungal pathogens, Fv; assay type: cell-based; conditions: 48 h
Protocol: as §1, §2, §3, §4

C. parapsilosis = test: Antifungal Activity Assay (broth microtiter MIC), C. parapsilosis; assay type: cell-based, Candida parapsilosis; conditions: Lodderomyces parapsilosis, ATCC22019, 48 h
Method in brief: as §5

Septoria tritici (St) = test: Growth inhibition assay of fungal pathogens, St; assay type: cell-based; conditions: Zymoseptoria tritici, 48 h, growth inhibition at 48 hours vs 2% DMSO control
Protocol: as §1, §2, §3, §4

[5] = growth inhibition at 48 hours vs 2% DMSO control, read-out: Concentration at 90% Inhibition Pc
[6] = Botrtyis cinerea, read-out: Concentration at 90% Inhibition Bc
[7] = Table 3a, ATCC 90028, 3 replicates, MIC recorded at 48 h, read-out: MIC, C. albicans ATCC 90028
[8] = Table 3b (additional results), ATCC 90028, 3 replicates, MIC recorded at 48 h, read-out: MIC, C. albicans ATCC 90028
[9] = Table 3a, ATCC 6258, 3 replicates, MIC recorded at 48 h, read-out: MIC, C. krusei ATCC 6258
[10] = Table 3b (additional results), ATCC 6258, 3 replicates, MIC recorded at 48 h, read-out: MIC, C. krusei ATCC 6258
[11] = Fusarium moniliforme, growth inhibition at 48 hours vs 2% DMSO control
[12] = Diplodia maydis, read-out: Concentration at 90% Inhibition Dm
[13] = Collectotrichum graminicola, read-out: Concentration at 90% Inhibition Cg
[14] = mycelial plugs, growth inhibition at 48 hours vs 2% DMSO control, read-out: Concentration at 90% Inhibition Rs
[15] = growth inhibition at 48 hours vs 2% DMSO control, read-out: Concentration at 90% Inhibition Fv
[16] = Table 3a, ATCC 22019, 3 replicates, MIC recorded at 48 h, read-out: MIC, C. parapsilosis ATCC 22019
[17] = Table 3b (additional results), ATCC 22019, 3 replicates, MIC recorded at 48 h, read-out: MIC, C. parapsilosis ATCC 22019
[18] = Septoria tritici, read-out: Concentration at 90% Inhibition St

Compound | IC50 (human (hACC2); Table 2a) [nM] | IC50 (human (hACC2); Table 2b, additional results) [nM] | IC90 [1, 5] [µg/mL] | IC90 (Botrtyis cinerea (Bc); [6]) [µg/mL] | MIC (C. albicans; [7]) [µg/mL] | MIC (C. albicans; [8]) [µg/mL] | MIC (C. krusei; [9]) [µg/mL] | MIC (C. krusei; [10]) [µg/mL] | IC90 [2, 11] [µg/mL] | IC90 (Diplodia maydis (Dm); [12]) [µg/mL] | IC90 [3, 13] [µg/mL] | IC50 (fungal (fACC2); Table 2a) [nM] | IC50 (fungal (fACC2); Table 2b, additional results) [nM] | IC90 (Rhizoctonia solani (Rs); [14]) [µg/mL] | IC90 [4, 15] [µg/mL] | MIC (C. parapsilosis; [16]) [µg/mL] | MIC (C. parapsilosis; [17]) [µg/mL] | IC90 (Septoria tritici (St); [18]) [µg/mL] | other results
CCc1ccc(F)cc1[C@H](Cn1c(=O)n(C(C)(C)C(=O)NC(C)C)c(=O)c2c(C)c(-n3nccn3)sc21)OCCO [Compound I-124] | 1 to 5 | 1 to 5 | 10 (≈ 17 µM) | 0.4 (≈ 0.682 µM) | 0.25 to 1 (≈ 0.426 to 1.7 µM) | 2.01 to 4 (≈ 3.43 to 6.82 µM) | 0.06 to 0.24 (≈ 0.102 to 0.409 µM) | 2.01 to 4 (≈ 3.43 to 6.82 µM) | 0.08 (≈ 0.136 µM) | 0.4 (≈ 0.682 µM) | 0.08 (≈ 0.136 µM) | 0.4 to 1 | 0.3 to 1 | 0.08 (≈ 0.136 µM) | 0.08 (≈ 0.136 µM) | 0.25 to 1 (≈ 0.426 to 1.7 µM) | 2.01 to 4 (≈ 3.43 to 6.82 µM) | 2 (≈ 3.41 µM) | –
CCc1ccc(F)cc1[C@H](Cn1c(=O)n(C(C)(C)C(=O)NC(C)C)c(=O)c2c(C)c(-n3nccn3)sc21)OCCOC [Compound I-126] | 5 to 10 | 5 to 10 | > 50 | 0.4 (≈ 0.666 µM) | 1.1 to 2 (≈ 1.83 to 3.33 µM) | > 4.01 | 0.25 to 1 (≈ 0.416 to 1.66 µM) | > 4.01 | 0.08 (≈ 0.133 µM) | 2 (≈ 3.33 µM) | 0.4 (≈ 0.666 µM) | 1 to 5 | 1 to 5 | 2 (≈ 3.33 µM) | 0.4 (≈ 0.666 µM) | 1.1 to 2 (≈ 1.83 to 3.33 µM) | 2.01 to 4 (≈ 3.35 to 6.66 µM) | 10 (≈ 16.6 µM) | –
COc1ccccc1[C@H](Cn1c(=O)n(C(C)(C)C(=O)NC(C)C)c(=O)c2c(C)c(-n3nccn3)sc21)OCCC#N [Compound I-136, 2-[1-[(2R)-2-(2-cyanoethoxy)-2-(2-methoxyphenyl)ethyl]-5-methyl-2,4-dioxo-6-(2H-1,2,3-triazol-2-yl)-1H,2H,3H,4H-thieno[2,3-d]pyrimidin-3-yl]-2-methyl-N-(propan-2-yl)propanamide] | 5 to 10 | 5 to 10 | – | – | – | – | – | – | – | – | – | 1 to 5 | 0.3 to 1 | – | – | – | – | – | IC90 ([1]; read-out: Concentration at 90% Inhibition Pc, Phytophthora capsici, growth inhibition at 48 hours vs 2% DMSO control): 2 µg/mL (≈ 3.45 µM); IC90 (Botrtyis cinerea (Bc); read-out: Concentration at 90% Inhibition Bc, Botrtyis cinerea): 0.08 µg/mL (≈ 0.138 µM); MIC (C. albicans; read-out: MIC, C. albicans ATCC 90028, Table 3a, 3 replicates, MIC recorded at 48 h): 0.25 to 1 µg/mL (≈ 0.431 to 1.73 µM); MIC (C. albicans; read-out: MIC, C. albicans ATCC 90028, Table 3b (additional results), 3 replicates, MIC recorded at 48 h): 1.01 to 2 µg/mL (≈ 1.74 to 3.45 µM); MIC (C. krusei; read-out: MIC, C. krusei ATCC 6258, Table 3a, 3 replicates, MIC recorded at 48 h): 0.06 to 0.24 µg/mL (≈ 0.104 to 0.414 µM); MIC (C. krusei; read-out: MIC, C. krusei ATCC 6258, Table 3b (additional results), 3 replicates, MIC recorded at 48 h): 0.25 to 1 µg/mL (≈ 0.431 to 1.73 µM); IC90 [2]: 0.08 µg/mL (≈ 0.138 µM); IC90 (Diplodia maydis (Dm); read-out: Concentration at 90% Inhibition Dm, Diplodia maydis): 0.08 µg/mL (≈ 0.138 µM); IC90 ([3]; read-out: Concentration at 90% Inhibition Cg, Collectotrichum graminicola): 0.08 µg/mL (≈ 0.138 µM); IC90 (Rhizoctonia solani (Rs); read-out: Concentration at 90% Inhibition Rs, Rhizoctonia solani, mycelial plugs, growth inhibition at 48 hours vs 2% DMSO control): 0.08 µg/mL (≈ 0.138 µM); IC90 ([4]; read-out: Concentration at 90% Inhibition Fv, Fusarium virguliforme, growth inhibition at 48 hours vs 2% DMSO control): 0.4 µg/mL (≈ 0.69 µM); MIC (C. parapsilosis; read-out: MIC, C. parapsilosis ATCC 22019, Table 3a, 3 replicates, MIC recorded at 48 h): 0.25 to 1 µg/mL (≈ 0.431 to 1.73 µM); MIC (C. parapsilosis; read-out: MIC, C. parapsilosis ATCC 22019, Table 3b (additional results), 3 replicates, MIC recorded at 48 h): 0.25 to 1 µg/mL (≈ 0.431 to 1.73 µM); IC90 (Septoria tritici (St); read-out: Concentration at 90% Inhibition St, Septoria tritici): 2 µg/mL (≈ 3.45 µM)
